The source of these data is ChEMBL document CHEMBL3414510 (J Med Chem, 2015).

Data set [1] deals with Liver. Briefly: Metabolic stability in CD1 mouse liver microsomes after 30 mins by LC/MS analysis. It counts as ADME. To be noted: 0.5 h.
A short description of data set [2]: Permeability across human Caco2 cells. The note with it: caco-2. In kind it is ADME, cell-based. Background: Caco-2 monolayers are a common model of the intestinal barrier.
The test system of data set [3] is Mus musculus. Kind of data set: Clearance in Balb/C mouse at 5 mg/kg, iv and po relative to liver blood flow. It counts as ADME, organism-based. The arrangement: dose 5 mg/kg, route oral. To be noted: in vivo.

Each structure is given as a SMILES string.

In the case of `Cn1cc(CCn2cnc(-c3cnn(C)c3)c2-c2ccc(C#N)cc2)cn1`, the Stability result in data set [1] is reported as “Stable”. The permeability entry in data set [2] was “permeable”. The compound also showed a CL in data set [3] of 50%.
